In patent publication US20190083462A1, “PREVENTION OF NSAID ENTEROPATHY WITH MICROBIOTA-DERIVED TRYPTOPHAN-METABOLITE” (THE TEXAS A&M UNIVERSITY SYSTEM, priority 2016, published 2019):

Experiments:
C57BL/6J mice = test: Histology and small intestinal morphometric measurements; format: in vivo
Procedure: Eight- to 10-week-old specific-pathogen-free C57BL/6J mice were purchased and allowed to acclimate for 2 weeks. Mice were fed standardized laboratory rodent diet and sterile water ad libitum. […] Mice were then rehoused on the basis of treatment group assignment, with 5 animals/group-cage. To induce NSAID enteropathy, mice in group 1 were gavaged once daily with indomethacin (5 mg/kg; for 7 days; Sigma Aldrich, St. Louis, Mo.) dissolved in dimethylysulfoxide (DMSO) (Sigma Aldrich, St. Louis, Mo.) and further diluted in phosphate buffered saline (PBS). […] All mice were gavaged with equal volumes (200 μL) and equal concentrations of DMSO (0.001%).
Feces were collected daily by placing individual animals in sterile plastic cups that were RNase- and DNase-free until they passed feces. The mice were immediately returned to their home cages and the feces immediately flash frozen at −80° C. All animals were euthanized via CO2 asphyxiation on day 8 (i.e., after 7 days of treatment). The small intestine was harvested, opened longitudinally, rinsed with ice-cold PBS, and the distal ⅓ of the intestinal mucosa was scraped for tissue gene expression analysis. The remaining small intestine was fixed in 4% paraformaldehyde, Swiss-rolled, paraffin-embedded, and stained with hematoxylin and eosin.
The slides were scored as previously described for intestinal inflammation (Jia Q, Lupton J R, Smith R, Weeks B R, Callaway E, Davidson L A, Kim W, Fan Y Y, Yang P, Newman R A, et al. Reduced colitis-associated colon cancer in Fat-1 (n-3 fatty acid desaturase) transgenic mice. Cancer Research 2008; 68:3985-91). Briefly, mucosal injury was determined by the following parameters scored from 0 (no evidence) to 3 (marked): mucosal ulceration, mucosal erosion, and presence of squamified epithelium. Inflammatory changes were scored similarly based on the following parameters: lymphocytic infiltration, plasma cell infiltration, and neutrophilic infiltration. Finally, an overall evidence of injury score was used to document total injury graded from 0 (none) to 4 (marked). Morphological parameters were obtained from digitally scanned slides using SPOT vr 5.0 software. Three sets of measurements from 3 separate sections were recorded for each animal by an observer blinded to treatment group. Measurements consisted of villus height, crypt depth, and submucosal mural thickness.

[1] = tested on: CD11b- and GR-1-positive cells (i.e., neutrophils); test: Flow cytometry of spleen and mesenteric lymph nodes; format: in vivo, mice; conditions: after 7 days of treatment
Procedure: Eight- to 10-week-old specific-pathogen-free C57BL/6J mice were purchased and allowed to acclimate for 2 weeks. Mice were fed standardized laboratory rodent diet and sterile water ad libitum. […] Mice were then rehoused on the basis of treatment group assignment, with 5 animals/group-cage. To induce NSAID enteropathy, mice in group 1 were gavaged once daily with indomethacin (5 mg/kg; for 7 days; Sigma Aldrich, St. Louis, Mo.) dissolved in dimethylysulfoxide (DMSO) (Sigma Aldrich, St. Louis, Mo.) and further diluted in phosphate buffered saline (PBS). […] Sigma Aldrich, St. Louis, Mo.) dissolved in sterile water warmed to 55° C. […] All mice were gavaged with equal volumes (200 μL) and equal concentrations of DMSO (0.001%). Feces were collected daily by placing individual animals in sterile plastic cups that were RNase- and DNase-free until they passed feces. The mice were immediately returned to their home cages and the feces immediately flash frozen at -80° C. All animals were euthanized via CO2 asphyxiation on day 8 (i.e., after 7 days of treatment). […] Life Technologies, Carlsbad, Calif.), homogenized, and prepared as a single cell suspension for flow cytometric analysis as previously described (Wang […]. Measuring bacterial load and immune responses in mice infected with Listeria monocytogenes. Journal of Visualized Experiments: JoVE 2011). […]

fecal microbiota = test: Inferred metagenome of the fecal microbiota (PICRUSt, SIMPER); format: in vivo, mice; conditions: for mean % abundance: day 7 feces
Procedure: Eight- to 10-week-old specific-pathogen-free C57BL/6J mice were purchased and allowed to acclimate for 2 weeks. Mice were fed standardized laboratory rodent diet and sterile water ad libitum. […] Mice were then rehoused on the basis of treatment group assignment, with 5 animals/group-cage. To induce NSAID enteropathy, mice in group 1 were gavaged once daily with indomethacin (5 mg/kg; for 7 days; Sigma Aldrich, St. Louis, Mo.) dissolved in dimethylysulfoxide (DMSO) (Sigma Aldrich, St. Louis, Mo.) and further diluted in phosphate buffered saline (PBS). […] Sigma Aldrich, St. Louis, Mo.) dissolved in sterile water warmed to 55° C. […] All mice were gavaged with equal volumes (200 μL) and equal concentrations of DMSO (0.001%). Feces were collected daily by placing individual animals in sterile plastic cups that were RNase- and DNase-free until they passed feces. The mice were immediately returned to their home cages and the feces immediately flash frozen at -80° C. All animals were euthanized via CO2 asphyxiation on day 8 (i.e., after 7 days of treatment). […] Life Technologies, Carlsbad, Calif.), homogenized, and prepared as a single cell suspension for flow cytometric analysis as previously described (Wang […]. Measuring bacterial load and immune responses in mice infected with Listeria monocytogenes. Journal of Visualized Experiments: JoVE 2011). The software Phylogenetic Investigation of Communities by Reconstruction of Unobserved States (PICRUSt) was used to predict the metagenome ([…], Knights […] Thurber R L, Knight R, et al. Predictive functional profiling of microbial communities using 16S rRNA marker gene sequences. Nature Biotechnology 2013; 31:814-21). Sequencing data were prepared as described above, but sequences were then clustered into OTUs using a closed-reference OTU picking protocol at the 97% sequencing identity level [http://qiime.org/scripts/pick_closed_reference_otus.html]. The resulting OTU table was normalized by the expected copy number(s) of the 16s rRNA gene in each OTU. PICRUSt was then used to predict the metagenome [https://picrust.github.io/picrust/tutorials/metagenome_prediction.html#metagenome-prediction-tutorial]. Each sample was rarefied to an even sequencing depth to adjust for uneven sequencing depth prior to further analysis. Differences in the metagenomes among the groups were investigated by visual assessment of clustering on PCA and by analysis of similarity (ANOSIM) calculated on Bray Curtis dissimilarity metric.

[2] = Unclassified, Metabolism, Energy metabolism
[3] = Unclassified, Metabolism, Others

## COc1ccc2c(c1)c(CC(=O)O)c(C)n2C(=O)c1ccc(Cl)cc1 [NSAID, indomethacin]
C57BL/6J mice; Swiss-rolled H & E stained small intestinal sections, n=5/group
  microscopic pathology scores: significant difference from control
C57BL/6J mice; data not shown
  effect on the large intestine: negligible effect
C57BL/6J mice; small intestinal mucosa
  ratio of villus height to crypt depth: significantly decreased
[1]
  percentage of CD11b- and GR-1-positive cells (neutrophils) in the mesenteric lymph nodes (MLN): significant increase
  percentage of CD11b- and GR-1-positive cells (neutrophils) in the spleen: significant increase
Fecal microbiota; Alanine, aspartate and glutamate metabolism
  vs. Control Direction: ↓
Fecal microbiota; Amino Acid related enzymes
  vs. Control Direction: ↑
Fecal microbiota; Carbohydrate Metabolism, Citrate cycle (TCA cycle)
  vs. Control Direction: ↑
Fecal microbiota; Cell Motility, Bacterial chemotaxis
  vs. Control Direction: ↑
Fecal microbiota; Cell Motility, Bacterial motility proteins
  vs. Control Direction: ↑
Fecal microbiota; Cell Motility, Flagellar assembly
  vs. Control Direction: ↑
Fecal microbiota; Cellular Processes and Signalling, Sporulation
  vs. Control Direction: ↑
Fecal microbiota; Cellular Processes, Cell Motility, Bacterial chemotaxis
  mean % abundance: 1.30%
Fecal microbiota; Cellular Processes, Cell Motility, Bacterial motility proteins
  mean % abundance: 0.81%
Fecal microbiota; Cellular Processes, Cell Motility, Flagellar assembly
  mean % abundance: 0.91%
Fecal microbiota; Chaperones and folding catalysts
  vs. Control Direction: ↓
Fecal microbiota; Energy Metabolism, Carbon fixation pathways in prokaryotes
  vs. Control Direction: ↓
Fecal microbiota; Energy Metabolism, Oxidative phosphorylation
  vs. Control Direction: ↑
Fecal microbiota; Environmental Information Processing, Membrane Transport, ABC transporters
  mean % abundance: 1.71%
Fecal microbiota; Environmental Information Processing, Membrane Transport, Phosphotransferase system (PTS)
  mean % abundance: 0.18%
Fecal microbiota; Environmental Information Processing, Membrane Transport, Transporters
  mean % abundance: 3.82%
Fecal microbiota; Environmental Information Processing, Signal Transduction, Two-component system
  mean % abundance: 0.20%
Fecal microbiota; Folate biosynthesis
  vs. Control Direction: ↑
Fecal microbiota; Genetic Information Processing, Folding, Sorting and Degradation, Chaperones and folding catalysts
  mean % abundance: 0.61%
Fecal microbiota; Genetic Information Processing, Replication and Repair DNA repair and recombination proteins
  mean % abundance: 3.12%
Fecal microbiota; Genetic Information Processing, Replication and Repair, DNA replication proteins
  mean % abundance: 0.50%
Fecal microbiota; Genetic Information Processing, Replication and Repair, Homologous recombination
  mean % abundance: 2.12%
Fecal microbiota; Genetic Information Processing, Transcription, Transcription factors
  mean % abundance: 0.31%
Fecal microbiota; Genetic Information Processing, Translation Ribosome Biogenesis
  mean % abundance: 0.70%
Fecal microbiota; Genetic Information Processing, Translation, Ribosome
  mean % abundance: 2.94%
Fecal microbiota; Lipopolysaccharide biosynthesis
  vs. Control Direction: ↑
Fecal microbiota; Lipopolysaccharide biosynthesis proteins
  vs. Control Direction: ↑
Fecal microbiota; Membrane Transport, ABC transporters
  vs. Control Direction: ↓
Fecal microbiota; Membrane Transport, Phosphotransferase system (PTS)
  vs. Control Direction: ↓
Fecal microbiota; Membrane Transport, Transporters
  vs. Control Direction: ↓
Fecal microbiota; Membrane and intracellular structural molecules
  vs. Control Direction: ↓
Fecal microbiota; Metabolism, Amino Acid Metabolism, Alanine, aspartate and glutamate metabolism
  mean % abundance: 1.14%
Fecal microbiota; Metabolism, Amino Acid Metabolism, Amino Acid related enzymes
  mean % abundance: 1.65%
Fecal microbiota; Metabolism, Carbohydrate Metabolism, Citrate cycle (TCA cycle)
  mean % abundance: 1.25%
Fecal microbiota; Metabolism, Energy Metabolism, Carbon fixation pathways in prokaryotes
  mean % abundance: 0.40%
Fecal microbiota; Metabolism, Energy Metabolism, Oxidative phosphorylation
  mean % abundance: 1.65%
Fecal microbiota; Metabolism, Glycan Biosynthesis and Metabolism, Lipopolysaccharide biosynthesis proteins
  mean % abundance: 1.48%
Fecal microbiota; Metabolism, Glycan Biosynthesis and Metabolism, Lipopolysaccharide biosynthesis
  mean % abundance: 1.55%
Fecal microbiota; Metabolism, Glycan Biosynthesis and Metabolism, Other glycan degradation
  mean % abundance: 1.27%
Fecal microbiota; Metabolism, Metabolism of Cofactors and Vitamins, Folate biosynthesis
  mean % abundance: 1.66%
Fecal microbiota; Metabolism, Metabolism of Cofactors and Vitamins, One carbon pool by folate
  mean % abundance: 0.49%
Fecal microbiota; Metabolism, Metabolism of Cofactors and Vitamins, Porphyrin and chlorophyll metabolism
  mean % abundance: 2.42%
Fecal microbiota; Metabolism, Nucleotide Metabolism, Purine metabolism
  mean % abundance: 0.90%
Fecal microbiota; Metabolism, Nucleotide Metabolism, Pyrimidine metabolism
  mean % abundance: 2.24%
Fecal microbiota; Nucleotide Metabolism, Purine metabolism
  vs. Control Direction: ↓
Fecal microbiota; Nucleotide Metabolism, Pyrimidine metabolism
  vs. Control Direction: ↑
Fecal microbiota; One carbon pool by folate
  vs. Control Direction: ↓
Fecal microbiota; Other glycan degradation
  vs. Control Direction: ↑
Fecal microbiota; Pores ion channels
  vs. Control Direction: ↑
Fecal microbiota; Porphyrin and chlorophyll metabolism
  vs. Control Direction: ↑
Fecal microbiota; Replication and Repair DNA repair and recombination proteins
  vs. Control Direction: ↑
Fecal microbiota; Replication and Repair, DNA replication proteins
  vs. Control Direction: ↓
Fecal microbiota; Replication and Repair, Homologous recombination
  vs. Control Direction: ↑
Fecal microbiota; Signal Transduction, Two-component system
  vs. Control Direction: ↓
Fecal microbiota; Transcription, Transcription factors
  vs. Control Direction: ↓
Fecal microbiota; Translation Ribosome Biogenesis
  vs. Control Direction: ↓
Fecal microbiota; Translation, Ribosome
  vs. Control Direction: ↑
Fecal microbiota; Unclassified, Cellular Processes and Signaling, Pores ion channels
  mean % abundance: 3.54%
Fecal microbiota; Unclassified, Cellular Processes and Signalling, Membrane and intracellular structural molecules
  mean % abundance: 0.17%
Fecal microbiota; Unclassified, Cellular Processes and Signalling, Sporulation
  mean % abundance: 1.00%
Fecal microbiota; [2]
  vs. Control Direction: ↑
  mean % abundance: 1.25%
Fecal microbiota; [3]
  vs. Control Direction: ↑
  mean % abundance: 0.84%
